For 26 compounds, IC50 results are on record in patent US11306078B2, “Piperidine CXCR7 receptor modulators” (IDORSIA PHARMACEUTICALS LTD., priority 2016, dated 2022).

pIC50: −log10 of the molar value.

The target in the test is human chemokine receptor CXCR7 (Homo sapiens (Human), UniProt P25106). Description: Tango CXCR7-bla U2OS beta-arrestin recruitment assay (beta-lactamase reporter, FRET), antagonism of CXCL12/SDF1-α.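 Also: compounds preincubated 15 min before CXCL12 addition, then 22 h at 37 °C, FRET emission ratio read with CCF4-AM substrate after 2 h.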 The note with it: antagonistic effect on CXCR7; Tango CXCR7-bla U2OS cells, CXCL12/SDF1-α at its EC80. In kind it is cell-based. (In general: Activated receptors often draw arrestin, which recruitment assays turn into a signal.)
Chain of human chemokine receptor CXCR7 (P25106 whole entry): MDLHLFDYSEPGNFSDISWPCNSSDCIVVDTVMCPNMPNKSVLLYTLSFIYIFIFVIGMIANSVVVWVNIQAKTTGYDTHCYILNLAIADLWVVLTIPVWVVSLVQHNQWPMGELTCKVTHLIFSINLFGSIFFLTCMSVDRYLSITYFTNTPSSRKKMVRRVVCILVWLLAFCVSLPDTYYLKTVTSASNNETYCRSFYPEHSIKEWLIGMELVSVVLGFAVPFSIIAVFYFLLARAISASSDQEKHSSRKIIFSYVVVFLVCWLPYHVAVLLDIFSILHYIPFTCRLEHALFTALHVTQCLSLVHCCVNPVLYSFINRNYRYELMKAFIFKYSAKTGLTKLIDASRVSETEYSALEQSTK

The pIC50 is the IC50 on a negative log10 scale, so that one unit is a factor of ten. The low end stands for a high IC50, the high end for a low IC50. In turn, `O=C(N[C@@H]1CCN(C2CCCCC2)C[C@H]1C(=O)NC1CCCC1)c1cc(-c2ccc(F)cc2F)on1` (racemic) [Example 1.003, rac-(3R*,4R*)-1-Cyclohexyl-4-{[5-(2,4-difluoro-phenyl)-isoxazole-3-carbonyl]-amino}-piperidine-3-carboxylic acid cyclopentylamide] showed a pIC50 of 6.25.
The figure for `CN(CCO)C(=O)[C@@H]1CN(C2CCCCC2)CC[C@H]1NC(=O)c1cc(-c2ccc(F)cc2F)on1` (racemic) [Example 1.005, rac-(3R*,4R*)-1-Cyclohexyl-4-{[5-(2,4-difluoro-phenyl)-isoxazole-3-carbonyl]-amino}-piperidine-3-carboxylic acid (2-hydroxy-ethyl)-methyl-amide] is 6.70; for `COCCNC(=O)[C@@H]1CN(C2CCCCC2)CC[C@H]1NC(=O)c1cc(-c2ccc(F)cc2F)on1` (racemic) [Example 1.006, rac-(3R*,4R*)-1-Cyclohexyl-4-{[5-(2,4-difluoro-phenyl)-isoxazole-3-carbonyl]-amino}-piperidine-3-carboxylic acid (2-methoxy-ethyl)-amide] it is 6.38; for `CC(C)CNC(=O)[C@@H]1CN(C2CCCCC2)CC[C@H]1NC(=O)c1cc(-c2ccc(F)cc2F)on1` (racemic) [Example 1.007, rac-(3R*,4R*)-1-Cyclohexyl-4-{[5-(2,4-difluoro-phenyl)-isoxazole-3-carbonyl]-amino}-piperidine-3-carboxylic acid isobutyl-amide] it is 6.11.
Take `CC(C)NC(=O)[C@@H]1CN(C2CCCCC2)CC[C@H]1NC(=O)c1cc(-c2ccc(F)cc2F)on1` (racemic) [Example 1.008, rac-(3R*,4R*)-1-Cyclohexyl-4-{[5-(2,4-difluoro-phenyl)-isoxazole-3-carbonyl]-amino}-piperidine-3-carboxylic acid isopropylamide]: the pIC50 is 6.40.
The figure for `O=C(N[C@@H]1CCN(C2CCCCC2)C[C@H]1C(=O)NCCF)c1cc(-c2ccc(F)cc2F)on1` (racemic) [Example 1.011, rac-(3R*,4R*)-1-Cyclohexyl-4-{[5-(2,4-difluoro-phenyl)-isoxazole-3-carbonyl]-amino}-piperidine-3-carboxylic acid (2-fluoro-ethyl)-amide] is 6.55; for `CCNC(=O)[C@@H]1CN(C2CCCCC2)CC[C@H]1NC(=O)c1cc(-c2ccc(F)cc2F)on1` (racemic) [Example 1.012, rac-(3R*,4R*)-1-Cyclohexyl-4-{[5-(2,4-difluoro-phenyl)-isoxazole-3-carbonyl]-amino}-piperidine-3-carboxylic acid ethylamide] it is 7.24; for `CN(C(=O)[C@@H]1CN(C2CCCCC2)CC[C@H]1NC(=O)c1cc(-c2ccc(F)cc2F)on1)C1CC1` (racemic) [Example 1.013, rac-(3R*,4R*)-1-Cyclohexyl-4-{[5-(2,4-difluoro-phenyl)-isoxazole-3-carbonyl]-amino}-piperidine-3-carboxylic acid cyclopropyl-methyl-amide] it is 6.62.
The figure for `NC(=O)CNC(=O)[C@@H]1CN(C2CCCCC2)CC[C@H]1NC(=O)c1cc(-c2ccc(F)cc2F)on1` (racemic) [Example 1.014, rac-(3R*,4R*)-1-Cyclohexyl-4-{[5-(2,4-difluoro-phenyl)-isoxazole-3-carbonyl]-amino}-piperidine-3-carboxylic acid carbamoylmethyl-amide] is 6.54.
For `O=C(N[C@@H]1CCN(C2CCCCC2)C[C@H]1C(=O)N1CCOCC1)c1cc(-c2ccc(F)cc2F)on1` (racemic) [Example 1.016, rac-5-(2,4-Difluoro-phenyl)-isoxazole-3-carboxylic acid [(3R*,4R*)-1-cyclohexyl-3-(morpholine-4-carbonyl)-piperidin-4-yl]-amide], the pIC50 is 6.56.
The same measure for `CC(C)N(C)C(=O)[C@@H]1CN(C2CCCCC2)CC[C@H]1NC(=O)c1cc(-c2ccc(F)cc2F)on1` (racemic) [Example 1.017, rac-(3R*,4R*)-1-Cyclohexyl-4-{[5-(2,4-difluoro-phenyl)-isoxazole-3-carbonyl]-amino}-piperidine-3-carboxylic acid isopropyl-methyl-amide]: 6.31; for `CN(C)CCN(C)C(=O)[C@@H]1CN(C2CCCCC2)CC[C@H]1NC(=O)c1cc(-c2ccc(F)cc2F)on1` (racemic) [Example 1.018, rac-(3R*,4R*)-1-Cyclohexyl-4-{[5-(2,4-difluoro-phenyl)-isoxazole-3-carbonyl]-amino}-piperidine-3-carboxylic acid (2-dimethylamino-ethyl)-methyl-amide]: 6.50.
The figure for `CCOCCN(C)C(=O)[C@@H]1CN(C2CCCCC2)CC[C@H]1NC(=O)c1cc(-c2ccc(F)cc2F)on1` (racemic) [Example 1.019, rac-(3R*,4R*)-1-Cyclohexyl-4-{[5-(2,4-difluoro-phenyl)-isoxazole-3-carbonyl]-amino}-piperidine-3-carboxylic acid (2-ethoxy-ethyl)-methyl-amide] is 6.84; for `Cc1cc(CNC(=O)[C@@H]2CN(C3CCCCC3)CC[C@H]2NC(=O)c2cc(-c3ccc(F)cc3F)on2)no1` (racemic) [Example 1.022, rac-(3R*,4R*)-1-Cyclohexyl-4-{[5-(2,4-difluoro-phenyl)-isoxazole-3-carbonyl]-amino}-piperidine-3-carboxylic acid (5-methyl-isoxazol-3-ylmethyl)-amide] it is 6.70.
The same measure for `CN(C)CCNC(=O)[C@@H]1CN(C2CCCCC2)CC[C@H]1NC(=O)c1cc(-c2ccc(F)cc2F)on1` (racemic) [Example 1.023, rac-(3R*,4R*)-1-Cyclohexyl-4-{[5-(2,4-difluoro-phenyl)-isoxazole-3-carbonyl]-amino}-piperidine-3-carboxylic acid (2-dimethylamino-ethyl)-amide]: 6.13; for `O=C(N[C@@H]1CCN(C2CCCCC2)C[C@H]1C(=O)NCC(F)F)c1cc(-c2ccc(F)cc2F)on1` (racemic) [Example 1.026, rac-(3R*,4R*)-1-Cyclohexyl-4-{[5-(2,4-difluoro-phenyl)-isoxazole-3-carbonyl]-amino}-piperidine-3-carboxylic acid (2,2-difluoro-ethyl)-amide]: 6.20.
Take `COCCCN(C)C(=O)[C@@H]1CN(C2CCCCC2)CC[C@H]1NC(=O)c1cc(-c2ccc(F)cc2F)on1` (racemic) [Example 1.027, rac-(3R*,4R*)-1-Cyclohexyl-4-{[5-(2,4-difluoro-phenyl)-isoxazole-3-carbonyl]-amino}-piperidine-3-carboxylic acid (3-methoxy-propyl)-methyl-amide]: the pIC50 is 6.93.
In the case of `Cc1cc(CNC(=O)[C@@H]2CN(C3CCCCC3)CC[C@H]2NC(=O)c2cc(-c3ccc(F)cc3F)on2)on1` (racemic) [Example 1.029, rac-(3R*,4R*)-1-Cyclohexyl-4-{[5-(2,4-difluoro-phenyl)-isoxazole-3-carbonyl]-amino}-piperidine-3-carboxylic acid (3-methyl-isoxazol-5-ylmethyl)-amide], the pIC50 is 6.50.
The same measure for `Cc1nc(CNC(=O)[C@@H]2CN(C3CCCCC3)CC[C@H]2NC(=O)c2cc(-c3ccc(F)cc3F)on2)cs1` (racemic) [Example 1.031, rac-(3R*,4R*)-1-Cyclohexyl-4-{[5-(2,4-difluoro-phenyl)-isoxazole-3-carbonyl]-amino}-piperidine-3-carboxylic acid (2-methyl-thiazol-4-ylmethyl)-amide]: 6.07; for `O=C(N[C@@H]1CCN(C2CCCCC2)C[C@H]1C(=O)NCc1ncccn1)c1cc(-c2ccc(F)cc2F)on1` (racemic) [Example 1.032, rac-(3R*,4R*)-1-Cyclohexyl-4-{[5-(2,4-difluoro-phenyl)-isoxazole-3-carbonyl]-amino}-piperidine-3-carboxylic acid (pyrimidin-2-ylmethyl)-amide]: 6.81.
`Cc1ncsc1CNC(=O)[C@@H]1CN(C2CCCCC2)CC[C@H]1NC(=O)c1cc(-c2ccc(F)cc2F)on1` (racemic) [Example 1.033, rac-(3R*,4R*)-1-Cyclohexyl-4-{[5-(2,4-difluoro-phenyl)-isoxazole-3-carbonyl]-amino}-piperidine-3-carboxylic acid (4-methyl-thiazol-5-ylmethyl)-amide] had a pIC50 of 6.23.
The same measure for `O=C(N[C@@H]1CCN(C2CCCCC2)C[C@H]1C(=O)NCc1ccncn1)c1cc(-c2ccc(F)cc2F)on1` (racemic) [Example 1.034, rac-(3R*,4R*)-1-Cyclohexyl-4-{[5-(2,4-difluoro-phenyl)-isoxazole-3-carbonyl]-amino}-piperidine-3-carboxylic acid (pyrimidin-4-ylmethyl)-amide]: 6.11; for `O=C(N[C@@H]1CCN(C2CCCCC2)C[C@H]1C(=O)NCc1cnco1)c1cc(-c2ccc(F)cc2F)on1` (racemic) [Example 1.035, rac-(3R*,4R*)-1-Cyclohexyl-4-{[5-(2,4-difluoro-phenyl)-isoxazole-3-carbonyl]-amino}-piperidine-3-carboxylic acid (oxazol-5-ylmethyl)-amide]: 6.28; for `O=C(N[C@@H]1CCN(C2CCCCC2)C[C@H]1C(=O)N1CC(F)C1)c1cc(-c2ccc(F)cc2F)on1` (racemic) [Example 1.036, rac-5-(2,4-Difluoro-phenyl)-isoxazole-3-carboxylic acid [(3R*,4R*)-1-cyclohexyl-3-(3-fluoro-azetidine-1-carbonyl)-piperidin-4-yl]-amide]: 6.16.
The same measure for `O=C(N[C@@H]1CCN(C2CCCCC2)C[C@H]1C(=O)NCc1cnccn1)c1cc(-c2ccc(F)cc2F)on1` (racemic) [Example 1.037, rac-(3R*,4R*)-1-Cyclohexyl-4-{[5-(2,4-difluoro-phenyl)-isoxazole-3-carbonyl]-amino}-piperidine-3-carboxylic acid (pyrazin-2-ylmethyl)-amide]: 6.53; for `O=C(N[C@@H]1CCN(C2CCCCC2)C[C@H]1C(=O)NCCOC(F)(F)F)c1cc(-c2ccc(F)cc2F)on1` (racemic) [Example 1.038, rac-(3R*,4R*)-1-Cyclohexyl-4-{[5-(2,4-difluoro-phenyl)-isoxazole-3-carbonyl]-amino}-piperidine-3-carboxylic acid (2-trifluoromethoxy-ethyl)-amide]: 6.31.
